Measured values reported in patent US11179363B2, “Non-steroidal selective glucocorticoid receptor agonistic modulators (SEGRAMs) and uses thereof” (ASSOCIATION POUR LA RECHERCHE À L'IGBMC (ARI), priority 2017, dated 2021).

Assays:
[1] = molecular target: T1, glucocorticoid receptor (GR) (Mus musculus, UniProt P06537); assay: In vivo transcriptional analysis (q-RT-PCR) of the three GR functions in mouse ears; parameters: species or system Balb/C mice; settings: topical 18 hours
T1 construct: RNA transcripts were then extracted from mouse ears; from tissue; host or cells: ear skin of Balb/C mice (in vivo topical treatment)
T1 sequence (P06537 1-792): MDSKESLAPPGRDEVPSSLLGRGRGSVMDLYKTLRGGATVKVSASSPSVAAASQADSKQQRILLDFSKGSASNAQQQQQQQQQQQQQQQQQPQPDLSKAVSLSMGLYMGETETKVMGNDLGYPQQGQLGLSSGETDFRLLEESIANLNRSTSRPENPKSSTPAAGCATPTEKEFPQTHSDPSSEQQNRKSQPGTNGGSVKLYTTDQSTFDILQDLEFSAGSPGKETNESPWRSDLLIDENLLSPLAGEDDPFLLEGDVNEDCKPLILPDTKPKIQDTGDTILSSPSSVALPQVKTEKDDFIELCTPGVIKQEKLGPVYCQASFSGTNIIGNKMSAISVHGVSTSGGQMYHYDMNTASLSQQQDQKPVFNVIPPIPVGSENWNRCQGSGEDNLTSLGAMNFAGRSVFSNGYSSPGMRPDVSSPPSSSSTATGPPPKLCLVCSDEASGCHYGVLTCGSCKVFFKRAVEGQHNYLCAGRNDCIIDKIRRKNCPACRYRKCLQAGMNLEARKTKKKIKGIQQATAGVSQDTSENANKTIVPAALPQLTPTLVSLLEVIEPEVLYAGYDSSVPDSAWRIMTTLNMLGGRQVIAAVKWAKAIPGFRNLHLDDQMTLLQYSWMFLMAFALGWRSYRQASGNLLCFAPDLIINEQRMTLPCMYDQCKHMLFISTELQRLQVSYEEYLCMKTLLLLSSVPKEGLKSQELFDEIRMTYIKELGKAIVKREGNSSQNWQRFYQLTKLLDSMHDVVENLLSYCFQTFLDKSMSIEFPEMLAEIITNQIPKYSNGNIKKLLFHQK
Experimental: RNA transcripts were then extracted from mouse ears and the transcripts of 4 genes were analyzed by q-RT-PCR: • (i) the directly GR-transactivated gene of the mTOR inhibitor REDD1, • (ii) the GR-directly transrepressed gene of keratin 5 (K5) and • (iii) the GR-indirectly “tethered” transrepressed genes of interleukin-1β (IL-1β) and interleukin-6 (IL-6), both being activated in presence of 12-O-tetradecanoylphorbol-13-acetate (TPA). Results

[2] = system: OVA-induced asthma-like allergic lung inflammation; assay: Ovalbumin (OVA)-induced asthma-like allergic lung inflammation; type: in vivo, mice; settings: OVA model
Experimental: Glucocorticoids have been (Pearlman et al., 1997. Ann Allergy Asthma Immunol. 78(4):356-62), and are still, widely used in asthma therapy. In order to investigate the possible CpdX anti-inflammatory activity in vivo, mice were sensitized and challenged with either ovalbumin (OVA) or house dust mite (HDM) to induce an asthma-like allergic lung inflammation.
Mice were intraperitoneally sensitized with either 50 μg OVA together with alum or with alum alone on D0, D7 and D14. Mice were then subdivided into three groups, and on D19, D20 and D21, they were intranasally (i.n.) challenged with 10 μg OVA. The first and the second group received intranasally 0.5 mg/kg of body weight of Dex or CpdX respectively, while the third group served as a control.
On D22, the lung allergic inflammation was assessed for each mouse by examination of the bronchoalveolar lavage fluid (BAL). The total BAL cells, eosinophils, neutrophils, macrophages and lymphocytes were counted. RNA transcripts were extracted from lung samples and RNA transcripts of IL-1β, IL-6, IL-4, IL-5, IL-10, IL-13, Eotaxin, CCL4 and TNFα were analyzed by q-RT-PCR. Histological (with H&E staining) and immunohistochemical (with eosinophil-specific and neutrophil-specific antibodies) analyses of lung tissues were also carried out.

GR = molecular target: T2, GR (Homo sapiens, UniProt P04150); settings: cited from earlier work
T2 sequence (P04150 1-777): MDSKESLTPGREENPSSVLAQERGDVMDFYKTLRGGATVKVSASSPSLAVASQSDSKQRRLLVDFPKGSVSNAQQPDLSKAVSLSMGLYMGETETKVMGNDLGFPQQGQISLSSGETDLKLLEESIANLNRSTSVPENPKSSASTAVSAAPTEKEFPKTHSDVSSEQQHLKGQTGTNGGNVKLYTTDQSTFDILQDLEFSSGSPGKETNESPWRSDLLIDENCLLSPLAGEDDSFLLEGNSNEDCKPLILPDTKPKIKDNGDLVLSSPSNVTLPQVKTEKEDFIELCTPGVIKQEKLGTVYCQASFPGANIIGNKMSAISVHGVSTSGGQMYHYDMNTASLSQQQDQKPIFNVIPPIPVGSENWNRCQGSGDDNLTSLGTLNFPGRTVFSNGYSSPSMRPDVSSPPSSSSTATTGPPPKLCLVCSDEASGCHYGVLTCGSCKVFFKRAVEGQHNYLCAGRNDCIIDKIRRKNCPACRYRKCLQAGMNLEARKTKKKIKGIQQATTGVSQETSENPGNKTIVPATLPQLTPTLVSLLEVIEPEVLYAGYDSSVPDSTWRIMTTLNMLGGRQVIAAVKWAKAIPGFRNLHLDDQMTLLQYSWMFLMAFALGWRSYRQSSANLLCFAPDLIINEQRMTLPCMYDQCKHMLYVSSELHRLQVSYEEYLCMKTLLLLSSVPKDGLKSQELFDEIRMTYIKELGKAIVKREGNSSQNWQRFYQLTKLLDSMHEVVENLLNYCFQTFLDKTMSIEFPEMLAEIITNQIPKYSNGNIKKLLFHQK

K5 gene relative RNA expression (GR direct transrepression) ([1]; 1 nmole/cm^2, vs Vehicle): unchanged
REDD1 gene relative RNA expression (GR direct transactivation) ([1]; 1 nmole/cm^2, vs Vehicle): unchanged
Structure (SMILES): COc1ccc(F)cc1C(C)(C)CC(O)(CNc1ccc2c(c1)COC2=O)C(F)(F)F (racemic) [CpdX, 5-[4-(5-fluoro-2-methoxyphenyl)-2-hydroxy-4-methyl-2-(trifluoromethyl)pentylamino]-isobenzofuran-1(3H)-one]
GR functions induced (direct transactivation, direct transrepression, indirect tethered transrepression) ([1]; 1 nmole/cm^2): selectively exhibits an indirect tethered transrepression activity
eosinophils and neutrophils in lung (immunohistochemistry) ([2]; data not shown): similarly decreased
number of macrophages in BAL ([2]; intranasal 0.5 mg/kg, D22): unchanged
total number of BAL cells, eosinophils, neutrophils and lymphocytes ([2]; intranasal 0.5 mg/kg, D22, vs control group): significantly decreased
peribronchiolar and perivascular inflammatory cell infiltration (histology) ([2]; lung paraffin sections): strongly decreased
lung expression of IL-1β, IL-6, IL-4, IL-5, IL-10, IL-13, Eotaxin, CCL4 and TNFα ([2]; q-RT-PCR): significantly and similarly decreased
indirect tethered transrepression activity of the GR (GR): still inducing
transactivation and direct transrepression functions of the GR (GR): does not induce
